Data taken from PubChem BioAssay AID1259407 (Chemical Carcinogenesis Research Information System (CCRIS), 2018).
Calls of active or inactive are those of the source. No rule for the calls is given here.

Test system: CCRIS mutagenicity, Ames/micronucleus/aberration tests
Test: CCRIS mutagenicity studies
[1] = Test System: AMES SALMONELLA TYPHIMURIUM, Strain/Indicator: TA97, Metabolic Activation: NONE, Method: PREINCUBATION
[2] = Test System: AMES SALMONELLA TYPHIMURIUM, Strain/Indicator: TA98, Metabolic Activation: NONE, Method: PREINCUBATION
[3] = Test System: AMES SALMONELLA TYPHIMURIUM, Strain/Indicator: TA100, Metabolic Activation: NONE, Method: PREINCUBATION
[4] = Test System: AMES SALMONELLA TYPHIMURIUM, Strain/Indicator: TA1535, Metabolic Activation: NONE, Method: PREINCUBATION

With `S=[Se]` the mutagenic call (End Point: IN VITRO CHROMOSOMAL ABERRATIONS, Test System: CHO-LB CELLS, Metabolic Activation: NONE) was “active; positive”, the mutagenic call (End Point: IN VITRO CHROMOSOMAL ABERRATIONS, Test System: CHO-LB CELLS, Metabolic Activation: RAT, LIVER, S-9, AROCLOR 1254) was “active; positive” and the mutagenic call (Test System: AMES SALMONELLA TYPHIMURIUM, Strain/Indicator: TA97, Metabolic Activation: HAMSTER, LIVER, S-9, AROCLOR 1254 (5 OR 10%), Method: PREINCUBATION) was “active; positive”. The mutagenic call (Test System: AMES SALMONELLA TYPHIMURIUM, Strain/Indicator: TA97, Metabolic Activation: HAMSTER, LIVER, S-9, AROCLOR 1254 (30%), Method: PREINCUBATION) was “inactive; negative”, the mutagenic call [1] was “active; positive” and the mutagenic call (Test System: AMES SALMONELLA TYPHIMURIUM, Strain/Indicator: TA97, Metabolic Activation: RAT, LIVER, S-9, AROCLOR 1254 (5 OR 10%), Method: PREINCUBATION) was “active; positive”. For the same molecule, the mutagenic call (Test System: AMES SALMONELLA TYPHIMURIUM, Strain/Indicator: TA97, Metabolic Activation: RAT, LIVER, S-9, AROCLOR 1254 (30%), Method: PREINCUBATION) was “inactive; negative”, the mutagenic call (Test System: AMES SALMONELLA TYPHIMURIUM, Strain/Indicator: TA98, Metabolic Activation: HAMSTER, LIVER, S-9, AROCLOR 1254 (10%), Method: PREINCUBATION) was “inactive; negative” and the mutagenic call [2] was “inactive; negative”. The mutagenic call (Test System: AMES SALMONELLA TYPHIMURIUM, Strain/Indicator: TA98, Metabolic Activation: RAT, LIVER, S-9, AROCLOR 1254 (10%), Method: PREINCUBATION) was “inactive; negative”, the mutagenic call (Test System: AMES SALMONELLA TYPHIMURIUM, Strain/Indicator: TA100, Metabolic Activation: HAMSTER, LIVER, S-9, AROCLOR 1254 (5%), Method: PREINCUBATION) was “inactive; negative” and the mutagenic call (Test System: AMES SALMONELLA TYPHIMURIUM, Strain/Indicator: TA100, Metabolic Activation: HAMSTER, LIVER, S-9, AROCLOR 1254 (10%), Method: PREINCUBATION) was “active; positive”. For the same molecule, the mutagenic call [3] was “inactive; negative”, the mutagenic call (Test System: AMES SALMONELLA TYPHIMURIUM, Strain/Indicator: TA100, Metabolic Activation: RAT, LIVER, S-9, AROCLOR 1254 (5 OR 10%), Method: PREINCUBATION) was “inactive; negative” and the mutagenic call (Test System: AMES SALMONELLA TYPHIMURIUM, Strain/Indicator: TA1535, Metabolic Activation: HAMSTER, LIVER, S-9, AROCLOR 1254 (10%), Method: PREINCUBATION) was “inactive; negative”. The mutagenic call [4] was “inactive; negative” and the mutagenic call (Test System: AMES SALMONELLA TYPHIMURIUM, Strain/Indicator: TA1535, Metabolic Activation: RAT, LIVER, S-9, AROCLOR 1254 (10%), Method: PREINCUBATION) was “inactive; negative”.
`COc1cccc2c1C(=O)c1c(O)c3c(c(O)c1C2=O)CC(O)(C(=O)CO)CC3OC1CC(N2CCOCC2C#N)C(O)C(C)O1` (stereo not drawn) was tested, and the mutagenic call (Test System: AMES SALMONELLA TYPHIMURIUM, Strain/Indicator: TA100, Metabolic Activation: RAT, LIVER, S-9, AROCLOR 1254) was “inactive; negative”, the mutagenic call (Test System: CHINESE HAMSTER V-79, Strain/Indicator: V-79/8-AZAGUANINE, Metabolic Activation: NONE) was “active; positive” and the mutagenic call (Test System: UDS RAT HEPATOCYTES, Strain/Indicator: THY INCORP, Metabolic Activation: NONE, Method: AUTOMATIC COLONY COUNTER) was “active; positive”.
In the case of `CC1=C[C@]2(O[C@@H]3O[C@H](CO)[C@@H](O)[C@H](O)[C@H]3O)C[C@@H](C)C(=O)[C@@H]2[C@](C)(O)C12CC2`, the mutagenic call [2] is reported as “active; positive”, the mutagenic call (Test System: AMES SALMONELLA TYPHIMURIUM, Strain/Indicator: TA98, Metabolic Activation: NONE, Method: PREINCUBATION (PH 7.4)) is reported as “inactive; negative” and the mutagenic call (Test System: AMES SALMONELLA TYPHIMURIUM, Strain/Indicator: TA98, Metabolic Activation: NONE, Method: PREINCUBATION (PH 8.5)) is reported as “active; positive”. The mutagenic call (Test System: AMES SALMONELLA TYPHIMURIUM, Strain/Indicator: TA98, Metabolic Activation: S-9, Method: PREINCUBATION (PH 7.4)) was “inactive; negative”, the mutagenic call [3] was “active; positive” and the mutagenic call (Test System: AMES SALMONELLA TYPHIMURIUM, Strain/Indicator: TA100, Metabolic Activation: NONE, Method: PREINCUBATION (PH 7.4)) was “inactive; negative”. The mutagenic call (Test System: AMES SALMONELLA TYPHIMURIUM, Strain/Indicator: TA100, Metabolic Activation: NONE, Method: PREINCUBATION (PH 8.5)) was “active; positive”, the mutagenic call (Test System: AMES SALMONELLA TYPHIMURIUM, Strain/Indicator: TA100, Metabolic Activation: S-9, Method: PREINCUBATION (PH 7.4)) was “inactive; negative” and the mutagenic call (Test System: UDS RAT HEPATOCYTES, Strain/Indicator: THY INCORP, Metabolic Activation: NONE, Method: AUTORADIOGRAPHY) was “active; positive”.
For `COCCO`, the mutagenic call (Test System: AMES SALMONELLA TYPHIMURIUM, Strain/Indicator: TA97, Metabolic Activation: HAMSTER, LIVER, S-9, AROCLOR 1254 (10 OR 30%), Method: PREINCUBATION) was “inactive; negative”, the mutagenic call [1] was “inactive; negative” and the mutagenic call (Test System: AMES SALMONELLA TYPHIMURIUM, Strain/Indicator: TA97, Metabolic Activation: RAT, LIVER, S-9, AROCLOR 1254 (10 OR 30%), Method: PREINCUBATION) was “inactive; negative”. For the same molecule, the mutagenic call (Test System: AMES SALMONELLA TYPHIMURIUM, Strain/Indicator: TA97A, Metabolic Activation: NONE, Method: STANDARD PLATE) was “inactive; negative”, the mutagenic call (Test System: AMES SALMONELLA TYPHIMURIUM, Strain/Indicator: TA97A, Metabolic Activation: RAT, LIVER, S-9, AROCLOR 1254, Method: STANDARD PLATE) was “inactive; negative” and the mutagenic call (Test System: AMES SALMONELLA TYPHIMURIUM, Strain/Indicator: TA98, Metabolic Activation: HAMSTER, LIVER, S-9, AROCLOR 1254 (10 OR 30%), Method: PREINCUBATION) was “inactive; negative”. For the same molecule, the mutagenic call [2] was “inactive; negative”, the mutagenic call (Test System: AMES SALMONELLA TYPHIMURIUM, Strain/Indicator: TA98, Metabolic Activation: NONE, Method: STANDARD PLATE) was “inactive; negative” and the mutagenic call (Test System: AMES SALMONELLA TYPHIMURIUM, Strain/Indicator: TA98, Metabolic Activation: RAT, LIVER, S-9, AROCLOR 1254 (10 OR 30%), Method: PREINCUBATION) was “inactive; negative”. The mutagenic call (Test System: AMES SALMONELLA TYPHIMURIUM, Strain/Indicator: TA98, Metabolic Activation: RAT, LIVER, S-9, AROCLOR 1254, Method: STANDARD PLATE) was “inactive; negative”, the mutagenic call (Test System: AMES SALMONELLA TYPHIMURIUM, Strain/Indicator: TA100, Metabolic Activation: HAMSTER, LIVER, S-9, AROCLOR 1254 (10 OR 30%), Method: PREINCUBATION) was “inactive; negative” and the mutagenic call [3] was “inactive; negative”. For the same molecule, the mutagenic call (Test System: AMES SALMONELLA TYPHIMURIUM, Strain/Indicator: TA100, Metabolic Activation: NONE, Method: STANDARD PLATE) was “inactive; negative”, the mutagenic call (Test System: AMES SALMONELLA TYPHIMURIUM, Strain/Indicator: TA100, Metabolic Activation: RAT, LIVER, S-9, AROCLOR 1254 (10 OR 30%), Method: PREINCUBATION) was “inactive; negative” and the mutagenic call (Test System: AMES SALMONELLA TYPHIMURIUM, Strain/Indicator: TA100, Metabolic Activation: RAT, LIVER, S-9, AROCLOR 1254, Method: STANDARD PLATE) was “inactive; negative”. The mutagenic call (Test System: AMES SALMONELLA TYPHIMURIUM, Strain/Indicator: TA102, Metabolic Activation: NONE, Method: STANDARD PLATE) was “inactive; negative”, the mutagenic call (Test System: AMES SALMONELLA TYPHIMURIUM, Strain/Indicator: TA102, Metabolic Activation: RAT, LIVER, S-9, AROCLOR 1254, Method: STANDARD PLATE) was “inactive; negative” and the mutagenic call (Test System: AMES SALMONELLA TYPHIMURIUM, Strain/Indicator: TA1535, Metabolic Activation: HAMSTER, LIVER, S-9, AROCLOR 1254 (10 OR 30%), Method: PREINCUBATION) was “inactive; negative”. The mutagenic call [4] was “inactive; negative”, the mutagenic call (Test System: AMES SALMONELLA TYPHIMURIUM, Strain/Indicator: TA1535, Metabolic Activation: RAT, LIVER, S-9, AROCLOR 1254 (10 OR 30%), Method: PREINCUBATION) was “inactive; negative” and the mutagenic call (Test System: CHINESE HAMSTER OVARY, Strain/Indicator: CHO AS52 (GPT)/6-THIOGUANINE, Metabolic Activation: NONE) was “inactive; negative”. For the same molecule, the mutagenic call (Test System: CHINESE HAMSTER OVARY, Strain/Indicator: CHO-AS52/6-THIOGUANINE, Metabolic Activation: NONE) was “inactive; negative”, the mutagenic call (Test System: CHINESE HAMSTER OVARY, Strain/Indicator: CHO-K1-BH4 (HGPRT)/6-THIOGUANINE, Metabolic Activation: NONE) was “inactive; negative” and the mutagenic call (Test System: CHINESE HAMSTER OVARY, Strain/Indicator: CHO-K1-BH4 (HGPRT)/6-THIOGUANINE, Metabolic Activation: RAT, LIVER, S-9, AROCLOR 1254) was “inactive; negative”.
